{"source": "ChEMBL document CHEMBL3608294", "about": "“Epoxylathyrol Derivatives: Modulation of ABCB1-Mediated Multidrug Resistance in Human Colon Adenocarcinoma and Mouse T-Lymphoma Cells” (J Nat Prod, 2015)", "key": {"[1]": {"biological_target": "T1, ATP-dependent translocase ABCB1 (Homo sapiens, UniProt P08183)", "T1 sequence (P08183 whole entry)": "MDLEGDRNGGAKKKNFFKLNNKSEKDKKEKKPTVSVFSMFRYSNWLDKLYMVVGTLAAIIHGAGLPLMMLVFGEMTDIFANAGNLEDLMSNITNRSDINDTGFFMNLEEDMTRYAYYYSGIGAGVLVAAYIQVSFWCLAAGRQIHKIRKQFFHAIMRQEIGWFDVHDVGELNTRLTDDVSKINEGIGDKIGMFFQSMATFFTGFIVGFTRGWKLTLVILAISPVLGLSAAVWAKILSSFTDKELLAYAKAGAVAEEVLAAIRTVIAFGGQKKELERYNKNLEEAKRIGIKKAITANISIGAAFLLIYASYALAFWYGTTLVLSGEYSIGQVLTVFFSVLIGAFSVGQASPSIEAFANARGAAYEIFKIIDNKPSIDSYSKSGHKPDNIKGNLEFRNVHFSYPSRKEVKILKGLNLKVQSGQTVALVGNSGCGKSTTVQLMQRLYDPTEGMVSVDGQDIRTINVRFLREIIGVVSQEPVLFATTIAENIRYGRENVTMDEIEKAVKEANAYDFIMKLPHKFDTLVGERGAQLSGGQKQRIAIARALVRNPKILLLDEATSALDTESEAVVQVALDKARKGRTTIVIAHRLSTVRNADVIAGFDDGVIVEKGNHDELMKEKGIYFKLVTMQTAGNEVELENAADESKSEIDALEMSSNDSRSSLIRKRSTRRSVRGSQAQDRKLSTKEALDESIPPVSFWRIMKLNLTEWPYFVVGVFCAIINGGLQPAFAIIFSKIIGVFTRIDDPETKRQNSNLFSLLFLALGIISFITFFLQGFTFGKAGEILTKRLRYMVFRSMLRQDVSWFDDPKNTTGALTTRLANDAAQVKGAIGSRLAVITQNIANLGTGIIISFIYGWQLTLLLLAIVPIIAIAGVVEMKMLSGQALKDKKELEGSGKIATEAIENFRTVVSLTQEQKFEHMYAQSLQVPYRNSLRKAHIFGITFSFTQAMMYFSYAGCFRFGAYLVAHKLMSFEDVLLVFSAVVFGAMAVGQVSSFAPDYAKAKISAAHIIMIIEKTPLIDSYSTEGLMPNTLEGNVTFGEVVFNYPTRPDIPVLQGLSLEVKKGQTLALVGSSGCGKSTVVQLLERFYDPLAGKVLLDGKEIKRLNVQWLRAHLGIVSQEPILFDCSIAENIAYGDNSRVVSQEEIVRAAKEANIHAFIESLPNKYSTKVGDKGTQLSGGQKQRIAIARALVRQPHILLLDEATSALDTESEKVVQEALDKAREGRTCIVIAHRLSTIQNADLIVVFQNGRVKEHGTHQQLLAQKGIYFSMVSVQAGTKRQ", "test": "Inhibition of human ABCB1 expressed in Sf9 cell membrane vesicles assessed as reduction in verapamil transport at 0.8 uM to 100 uM using MgATP by colorimetric ATPase assay"}, "[2]": {"biological_target": "T1, ATP-dependent translocase ABCB1", "test": "Inhibition of ABCB1 in multidrug resistant human COLO320 cells assessed as fluorescence activity ratio at 2 uM incubated for 10 mins by flow cytometry based rhodamine-123 accumulation assay (reference value: 0.62)"}, "[3]": {"biological_target": "T1, ATP-dependent translocase ABCB1", "test": "Inhibition of ABCB1 in multidrug resistant human COLO320 cells assessed as fluorescence activity ratio at 20 uM incubated for 10 mins by flow cytometry based rhodamine-123 accumulation assay (reference value: 0.62)"}, "[4]": {"biological_target": "T1, ATP-dependent translocase ABCB1", "test": "Inhibition of human ABCB1 expressed in Sf9 cell membrane vesicles assessed as reduction in verapamil transport at 0.8 uM to 100 uM using MgATP by colorimetric ATPase assay relative to control"}, "L5178Y [5]": {"test_system": "L5178Y", "test": "Selectivity index, ratio of antiproliferative IC50 for wild type parental mouse L5178Y cells to antiproliferative IC50 for human ABCB1 expressing mouse L5178Y cells", "assay_type": "functional"}, "[6]": {"biological_target": "T1, ATP-dependent translocase ABCB1", "test": "Inhibition of ABCB1 in multidrug resistant human COLO320 cells assessed as fluorescence activity ratio at 0.2 uM incubated for 10 mins by flow cytometry based rhodamine-123 accumulation assay (reference value: 0.62)"}, "[7]": {"test": "Selectivity index, ratio of antiproliferative IC50 for chemosensitive human COLO205 cells to antiproliferative IC50 for multidrug resistant human COLO320 cells", "assay_type": "functional, COLO 205"}, "L5178Y [8]": {"test_system": "L5178Y", "test": "Selectivity index, ratio of cytotoxic IC50 for wild type parental mouse L5178Y cells to cytotoxic IC50 for human ABCB1 expressing mouse L5178Y cells", "assay_type": "functional"}, "[9]": {"biological_target": "T1, ATP-dependent translocase ABCB1", "test": "Inhibition of human ABCB1 expressed in mouse L5178Y cells assessed as fluorescence activity ratio at 20 uM incubated for 10 mins by flow cytometry based rhodamine-123 accumulation assay (reference value: 0.78)", "assay_type": "cell-based"}, "[10]": {"biological_target": "T1, ATP-dependent translocase ABCB1", "test": "Inhibition of human ABCB1 expressed in mouse L5178Y cells assessed as potentiation of 2 mg/ml doxorubicin-induced cytotoxicty by measuring combination index at 5:1 compound to doxorubicin ratio incubated for 48 hrs by MTT assay", "assay_type": "cell-based"}, "[11]": {"biological_target": "T1, ATP-dependent translocase ABCB1", "test": "Inhibition of human ABCB1 expressed in mouse L5178Y cells assessed as fluorescence activity ratio at 0.2 uM incubated for 10 mins by flow cytometry based rhodamine-123 accumulation assay (reference value: 0.78)", "assay_type": "cell-based"}, "L5178Y [12]": {"test_system": "L5178Y", "test": "Antiproliferative activity against human ABCB1 expressing mouse L5178Y cells incubated for 72 hrs by MTT assay", "assay_type": "functional, cell-based"}, "[13]": {"test": "Antiproliferative activity against chemosensitive human COLO205 cells incubated for 72 hrs by MTT assay", "assay_type": "functional, cell-based", "conditions": "COLO 205, 72 h; call rule not given here"}, "[14]": {"biological_target": "T1, ATP-dependent translocase ABCB1", "test": "Inhibition of human ABCB1 expressed in mouse L5178Y cells assessed as fluorescence activity ratio at 2 uM incubated for 10 mins by flow cytometry based rhodamine-123 accumulation assay (reference value: 0.78)", "assay_type": "cell-based"}, "L5178Y [15]": {"test_system": "L5178Y", "test": "Cytotoxicity against human ABCB1 expressing mouse L5178Y cells incubated for 24 hrs by MTT assay", "assay_type": "functional, cell-based"}, "[16]": {"test": "Antiproliferative activity against multidrug resistant human COLO320 cells incubated for 72 hrs by MTT assay", "assay_type": "functional", "conditions": "COLO 320, 72 h"}, "L5178Y [17]": {"test_system": "L5178Y", "test": "Cytotoxicity against chemosensitive wild type parental mouse L5178Y cells incubated for 24 hrs by MTT assay", "assay_type": "functional, cell-based"}, "L5178Y [18]": {"test_system": "L5178Y", "test": "Antiproliferative activity against chemosensitive wild type parental mouse L5178Y cells incubated for 72 hrs by MTT assay", "assay_type": "functional, cell-based"}, "[19]": {"biological_target": "T1, ATP-dependent translocase ABCB1", "test": "Activation of human ABCB1 expressed in Sf9 cell membrane vesicles assessed as inorganic phosphate release at 0.8 uM to 100 uM using MgATP by colorimetric ATPase assay"}}, "note": "pIC50: −log10 of the molar value."}
{"molecule": "CO[C@H]1[C@@H]2[C@H](CC[C@]3(COC(=O)c4ccccc4)O[C@@H]3[C@H]3[C@@H](OC(=O)c4ccccc4)[C@@H](C)C[C@]3(O)C(=O)[C@@H]1C)C2(C)C", "values": [{"measurement": "inhibition (INH)", "setting": "[1]", "value": "Active"}, {"measurement": "Ratio", "setting": "[2]", "value": 9.85}, {"measurement": "Ratio", "setting": "[3]", "value": 13.97}, {"measurement": "inhibition (INH)", "setting": "[4]", "value": 50, "unit": "%"}, {"measurement": "Ratio IC50", "setting": "L5178Y [5]", "value": 0.99}, {"measurement": "Ratio", "setting": "[6]", "value": 6.34}, {"measurement": "Ratio IC50", "setting": "[7]", "value": 0.76}, {"measurement": "Ratio IC50", "setting": "L5178Y [8]", "value": 0.8}, {"measurement": "Ratio", "setting": "[9]", "value": 71.78}, {"measurement": "CI", "setting": "[10]", "value": 0.057}, {"measurement": "Ratio", "setting": "[11]", "value": 11.85}, {"measurement": "pIC50", "setting": "L5178Y [12]", "value": 4.56}, {"measurement": "pIC50", "setting": "[13]", "value": 5.28}, {"measurement": "Ratio", "setting": "[14]", "value": 67.06}, {"measurement": "pIC50", "setting": "L5178Y [15]", "value": 4.49}, {"measurement": "pIC50", "setting": "[16]", "value": 5.16}, {"measurement": "pIC50", "setting": "L5178Y [17]", "value": 4.58}, {"measurement": "pIC50", "setting": "L5178Y [18]", "value": 4.57}, {"measurement": "Activity", "setting": "[19]", "value": "Active"}]}
